In brackets after ≈: the same amount, converted by molar mass.

Common to all, as to assay: Microtitre plate assay, IC90 determination
What all share (type): cell-based

Test [1] relates to Streptococcus mutans (ATCC33402). Particulars: 90% inhibitory concentration for bacterial growth, 37° C., resazurin fluorescence, read-out: IC90 (μg/ml) SMU 33402. The procedure: (§1) The bacteria used in this study were grown overnight in flasks containing 100 ml Mueller-Hinton Broth (Becton Dickinson—cat. no. 275730) in sterile de-ionized water, with shaking, at 37° C. Stocks (0.5 ml/tube) were stored at −70° C. until use. Bacteria titrations were performed in microtiter plates and colony forming units (CFUs) were determined. In general, an inoculum level of approximately 100 CFUs was used for susceptibility testing.
(§2) Anti Bacterial Susceptibility Testing: IC90 Determination
(§3) Flat-bottom, sterile 96-well plastic microtiter plates were filled with 180 μl of sterile deionized water, supplemented with 0.25% BSA. Subsequently, stock solutions (7.8×final test concentration) of compounds were added in 45 μl volumes in column 2 Serial five-fold dilutions (45 μl in 180 μl) were made directly in the microtiter plates from column 2 to reach column 11. Untreated control samples with (column 1) and without (column 12) inoculum were included in each microtiter plate. Depending on the bacteria type, approximately 10 to 60 CFU per well of bacteria inoculum (100 TCID50), in a volume of 100 μl in 2.8× Mueller-Hinton broth medium, was added to the rows A to H, except column 12. The same volume of broth medium without inoculum was added to column 12 in row A to H. The cultures were incubated at 37° C. for 24 hours under a normal atmosphere (incubator with open air valve and continuous ventilation). At the end of incubation, one day after inoculation, the bacterial growth was quantitated fluorometrically. Therefore resazurin (0.6 mg/ml) was added in a volume of 20 μl to all wells […], and the plates were re-incubated overnight. A change in colour from blue to pink indicated the growth of bacteria.
(§4) The fluorescence was read in a computer-controlled fluorometer (Cytofluor Biosearch) at an excitation wavelength of 530 nm and an emission wavelength of 590 nm. The % growth inhibition achieved by the compounds was calculated according to standard methods. The IC90 (expressed in μg/ml) was defined as the 90% inhibitory concentration for bacterial growth.
(The colour change of resazurin is a common sign of viable cells or microbes.)

In test [2] the test system is Enterococcus faecalis (ATCC14506). Particulars: 90% inhibitory concentration for bacterial growth, 37° C., resazurin fluorescence, read-out: IC90 (μg/ml) EFA 14506. The procedure: as §1, §2, §3, §4
In test [3] the test system is Staphylococcus aureus (ATCC29213). Particulars: 90% inhibitory concentration for bacterial growth, 37° C., resazurin fluorescence, read-out: IC90 (μg/ml) STA 29213. The procedure:
as §1, §2, §3, §4

The test system of test [4] is Staphylococcus aureus (ATCC25923). Particulars: 90% inhibitory concentration for bacterial growth, 37° C., resazurin fluorescence, read-out: IC90 (μg/ml) STA 25923. The procedure:
as §1, §2, §3, §4

The test system of test [5] is Streptococcus pyogens (ATCC8668). Particulars: 90% inhibitory concentration for bacterial growth, 37° C., resazurin fluorescence, read-out: IC90 (μg/ml) SPY 8668. The procedure: as §1, §2, §3, §4
In test [6] the test system is Listeria monocytogenes (ATCC49594). Particulars: 90% inhibitory concentration for bacterial growth, 37° C., resazurin fluorescence, read-out: IC90 (μg/ml) LMO 49594. The procedure: as §1, §2, §3, §4
The test system of test [7] is Streptococcus pneumoniae (ATCC6305). Particulars: 90% inhibitory concentration for bacterial growth, 37° C., resazurin fluorescence, read-out: IC90 (μg/ml) SPN 6305. As for the experimental part:
as §1, §2, §3, §4

Test [8] relates to Staphylococcus aureus (ATCC43300). Particulars: 90% inhibitory concentration for bacterial growth, 37° C., resazurin fluorescence, read-out: IC90 (μg/ml) STA 43300. The procedure: as §1, §2, §3, §4
For test [9], the system named is methicilline resistant Staphylococcus aureus (MRSA) (a clinical isolate from the University of Antwerp). Particulars: 90% inhibitory concentration for bacterial growth, 37° C., resazurin fluorescence, read-out: IC90 (μg/ml) STA RMETHIC. As for the experimental part: as §1, §2, §3, §4
In test [10] the test system is Enterococcus faecalis (ATCC29212). Particulars: 90% inhibitory concentration for bacterial growth, 37° C., resazurin fluorescence, read-out: IC90 (μg/ml) EFA 29212. The procedure: as §1, §2, §3, §4
Test [11] has as its system Bacillus subtilis (ATCC43639). Particulars: 90% inhibitory concentration for bacterial growth, 37° C., resazurin fluorescence, read-out: IC90 (μg/ml) BSU 43639. The procedure: as §1, §2, §3, §4
The subject of test [12] is Pseudomonas aeruginosa (ATCC27853). Particulars: 90% inhibitory concentration for bacterial growth, 37° C., resazurin fluorescence, read-out: IC90 (μg/ml) PAE 27853. As for the experimental part: as §1, §2, §3, §4
Test [13] relates to Escherichia coli (ATCC35218). Particulars: 90% inhibitory concentration for bacterial growth, 37° C., resazurin fluorescence, read-out: IC90 (μg/ml) ECO 35218. The procedure:
as §1, §2, §3, §4

Test [14] relates to Escherichia coli (ATCC25922). Particulars: 90% inhibitory concentration for bacterial growth, 37° C., resazurin fluorescence, read-out: IC90 (μg/ml) ECO 25922. As for the experimental part:
as §1, §2, §3, §4

Test [15] relates to Escherichia coli (ATCC1403). Particulars: 90% inhibitory concentration for bacterial growth, 37° C., resazurin fluorescence, read-out: IC90 (μg/ml) ECO 1403. The procedure: as §1, §2, §3, §4

For `COc1nc2c(C(O)(CCN(C)C)c3cc(F)cc(F)c3)cc(Br)cc2cc1Cc1ccccc1` (stereo not drawn) [Compound 12], the IC90 in [1] is 10.8 µg/mL (≈ 19.9 µM); in test [2], 10.8 µg/mL (≈ 19.9 µM); in test [3], 10.8 µg/mL (≈ 19.9 µM); in test [4], 12.1 µg/mL (≈ 22.3 µM); in test [5], 10.8 µg/mL (≈ 19.9 µM); in [6] it was 13.6 µg/mL (≈ 25.1 µM). For the same compound, the IC90 in [7] is 12.1 µg/mL (≈ 22.3 µM); in [8], 10.8 µg/mL (≈ 19.9 µM); in [9], 12.1 µg/mL (≈ 22.3 µM); in [10], 13.6 µg/mL (≈ 25.1 µM); in test [11], 13.6 µg/mL (≈ 25.1 µM); in test [12], 10.8 µg/mL (≈ 19.9 µM).
Take `CN(C)CCC(O)(c1cc(F)cc(F)c1)c1cc(Br)cc2cc(Cc3ccccc3)c(-n3ccnc3)nc12` (stereo not drawn) [Compound 19]: the IC90 was 11.5 µg/mL (≈ 19.9 µM) in test [1]; 14.5 µg/mL (≈ 25.1 µM) in test [3]; 12.9 µg/mL (≈ 22.3 µM) in test [4]; 11.5 µg/mL (≈ 19.9 µM) in test [5]; 14.5 µg/mL (≈ 25.1 µM) in test [6]; 14.5 µg/mL (≈ 25.1 µM) in [7]. The IC90 in test [8] worked out at 11.5 µg/mL (≈ 19.9 µM); in test [9], 14.5 µg/mL (≈ 25.1 µM); in [10] it was 14.5 µg/mL (≈ 25.1 µM); in [11], 14.5 µg/mL (≈ 25.1 µM); in test [12], 14.5 µg/mL (≈ 25.1 µM).
In the case of `CN(C)CCC(O)(c1cccs1)c1cc(Br)cc2cc(Cc3ccccc3)c(N3CCN(C)CC3)nc12` (stereo not drawn) [Compound 20], the IC90 in test [1] was found to be 14.6 µg/mL (≈ 25.2 µM); in test [3] it was 11.6 µg/mL (≈ 20 µM); in test [4] it was 13 µg/mL (≈ 22.4 µM); in test [13] it was 11.6 µg/mL (≈ 20 µM); in test [5], 11.6 µg/mL (≈ 20 µM); in test [6] it was 14.6 µg/mL (≈ 25.2 µM). Also, the IC90 was determined as 14.6 µg/mL (≈ 25.2 µM) in test [7]; 46 µg/mL (≈ 79.4 µM) in test [9]; 14.6 µg/mL (≈ 25.2 µM) in test [10]; 14.6 µg/mL (≈ 25.2 µM) in test [11]; 14.6 µg/mL (≈ 25.2 µM) in test [12]; 14.6 µg/mL (≈ 25.2 µM) in test [14]. Further, the IC90 in test [15] was found to be 13 µg/mL (≈ 22.4 µM).
Consider `CN(C)CCC(O)(c1cccs1)c1cc(Br)cc2cc(Cc3ccccc3)c(N(C)C)nc12` (stereo not drawn) [Compound 46], for which the IC90 in test [1] is 10.5 µg/mL (≈ 20 µM); in test [2] it was 10.5 µg/mL (≈ 20 µM); in [3], 10.5 µg/mL (≈ 20 µM); in test [4], 11.7 µg/mL (≈ 22.3 µM); in test [5] it was 10.5 µg/mL (≈ 20 µM); in test [6] it was 10.5 µg/mL (≈ 20 µM). The IC90 was determined as 10.5 µg/mL (≈ 20 µM) in test [7]; 10.5 µg/mL (≈ 20 µM) in [8]; 9.3 µg/mL (≈ 17.7 µM) in test [9]; 10.5 µg/mL (≈ 20 µM) in test [10]; 10.5 µg/mL (≈ 20 µM) in [11]; 10.5 µg/mL (≈ 20 µM) in test [12].
For the compound `CN(C)CCOc1nc2c(C(O)(CCN(C)C)c3ccccc3)cc(Br)cc2cc1Cc1ccccc1` (stereo not drawn) [Compound 49], the IC90 in test [1] was found to be 44.7 µg/mL (≈ 79.5 µM); in test [3], 44.7 µg/mL (≈ 79.5 µM); in test [4] it was 56.3 µg/mL (≈ 100 µM); in test [5] it was 22.4 µg/mL (≈ 39.8 µM); in test [6], 56.3 µg/mL (≈ 100 µM); in test [7], 56.3 µg/mL (≈ 100 µM). In addition, the IC90 in test [9], in test [10], in [11], in test [12] and in test [14] was 56.3 µg/mL (≈ 100 µM) in each case.
With `CN(C)CCC(O)(c1ccccc1)c1cc(Br)cc2cc(Cc3ccccc3)c(NCCC(c3ccccc3)c3ccccc3)nc12` (stereo not drawn) [Compound 59], the IC90 is 15.3 µg/mL (≈ 22.3 µM) in test [1]; 54.4 µg/mL (≈ 79.4 µM) in [2]; 15.3 µg/mL (≈ 22.3 µM) in test [3]; 54.4 µg/mL (≈ 79.4 µM) in test [4]; 15.3 µg/mL (≈ 22.3 µM) in test [13]; 15.3 µg/mL (≈ 22.3 µM) in test [5]. The IC90 in [6] came out at 10.9 µg/mL (≈ 15.9 µM); in test [7], 17.2 µg/mL (≈ 25.1 µM); in test [8], 17.2 µg/mL (≈ 25.1 µM); in test [9] it was 54.4 µg/mL (≈ 79.4 µM); in test [10], 17.2 µg/mL (≈ 25.1 µM); in [11], 10.9 µg/mL (≈ 15.9 µM). In addition, the IC90 in test [12] was found to be 17.2 µg/mL (≈ 25.1 µM).
